Data as given in ChEMBL document CHEMBL4804286, “3-amino-4-(4-(4 (dimethylcarbamoyl) phenyl)-1,4-diazepan-1-yl) thieno [2,3-b] pyridine-2-carboxamide for use in cancer therapy and formulations comprising the same” (2020).
Several values for one entry are separate records, joined by “and”; a condition that tells them apart may be missing. Identical values can stand only once.

Key:
Set-up in all cases: scale not given: the % may be the effect or the level left
[1] = biological target: Fibroblast growth factor receptor 2 (Homo sapiens) (UniProt P21802); assay: Inhibition of human FGFR2 assessed as percent of control at 2000 nM by KINOMEscan assay relative to control
[2] = biological target: Myosin-IIIb (Homo sapiens) (UniProt Q8WXR4); assay: Inhibition of human MYO3B assessed as percent of control at 2000 nM by KINOMEscan assay relative to control
[3] = biological target: Myosin light chain kinase family member 4 (Homo sapiens) (UniProt Q86YV6); assay: Inhibition of human MYLK4 assessed as percent of control at 2000 nM by KINOMEscan assay relative to control
[4] = biological target: Serine/threonine-protein kinase pim-1 (Homo sapiens) (UniProt P11309); assay: Inhibition of human PIM1 assessed as percent of control at 2000 nM by KINOMEscan assay relative to control
[5] = biological target: Serine/threonine-protein kinase LATS2 (Homo sapiens) (UniProt Q9NRM7); assay: Inhibition of human LATS2 assessed as percent of control at 2000 nM by KINOMEscan assay relative to control
[6] = tested on: Hepatocyte growth factor receptor (Homo sapiens), P08581 [Y1235D]; assay: Inhibition of human MET Y1235D mutant assessed as percent of control at 2000 nM by KINOMEscan assay relative to control
[7] = biological target: Bone morphogenetic protein receptor type-2 (Homo sapiens) (UniProt Q13873); assay: Inhibition of human BMPR2 assessed as percent of control at 2000 nM by KINOMEscan assay relative to control
[8] = biological target: Activin receptor type-1B (Homo sapiens) (UniProt P36896); assay: Inhibition of human ACVR1B assessed as percent of control at 2000 nM by KINOMEscan assay relative to control
[9] = tested on: Tyrosine-protein kinase ABL1 (Homo sapiens), P00519 [M351T]; assay: Inhibition of phosphorylated human ABL1 M351T mutant assessed as percent of control at 2000 nM by KINOMEscan assay relative to control
[10] = biological target: Phosphorylase b kinase gamma catalytic chain, liver/testis isoform (Homo sapiens) (UniProt P15735); assay: Inhibition of human PHKG2 assessed as percent of control at 2000 nM by KINOMEscan assay relative to control
[11] = biological target: LIM domain kinase 2 (Homo sapiens) (UniProt P53671); assay: Inhibition of human LIMK2 assessed as percent of control at 2000 nM by KINOMEscan assay relative to control
[12] = biological target: Dual specificity mitogen-activated protein kinase kinase 5 (Homo sapiens) (UniProt Q13163); assay: Inhibition of human MEK5 assessed as percent of control at 2000 nM by KINOMEscan assay relative to control
[13] = biological target: Mitogen-activated protein kinase 13 (Homo sapiens) (UniProt O15264); assay: Inhibition of human p38-delta assessed as percent of control at 2000 nM by KINOMEscan assay relative to control
[14] = biological target: Receptor tyrosine-protein kinase erbB-2 (Homo sapiens) (UniProt P04626); assay: Inhibition of human ERBB2 assessed as percent of control at 2000 nM by KINOMEscan assay relative to control
[15] = biological target: Serine/threonine-protein kinase RIO1 (Homo sapiens) (UniProt Q9BRS2); assay: Inhibition of human RIOK1 assessed as percent of control at 2000 nM by KINOMEscan assay relative to control
[16] = biological target: Mitogen-activated protein kinase kinase kinase 5 (Homo sapiens) (UniProt Q99683); assay: Inhibition of human ASK1 assessed as percent of control at 2000 nM by KINOMEscan assay relative to control
[17] = biological target: TGF-beta receptor type-1 (Homo sapiens) (UniProt P36897); assay: Inhibition of human TGFBR1 assessed as percent of control at 2000 nM by KINOMEscan assay relative to control
[18] = tested on: Phosphatidylinositol 4,5-bisphosphate 3-kinase catalytic subunit alpha isoform (Homo sapiens), P42336 [H1047L]; assay: Inhibition of human PIK3CA H1047L mutant assessed as percent of control at 2000 nM by KINOMEscan assay relative to control
[19] = tested on: Phosphatidylinositol 4,5-bisphosphate 3-kinase catalytic subunit alpha isoform (Homo sapiens), P42336 [E545K]; assay: Inhibition of human PIK3CA E545K mutant assessed as percent of control at 2000 nM by KINOMEscan assay relative to control
[20] = biological target: Mitogen-activated protein kinase kinase kinase kinase 2 (Homo sapiens) (UniProt Q12851); assay: Inhibition of human MAP4K2 assessed as percent of control at 2000 nM by KINOMEscan assay relative to control
[21] = biological target: Dual specificity mitogen-activated protein kinase kinase 3 (Homo sapiens) (UniProt P46734); assay: Inhibition of human MEK3 assessed as percent of control at 2000 nM by KINOMEscan assay relative to control
[22] = biological target: Dual specificity mitogen-activated protein kinase kinase 7 (Homo sapiens) (UniProt O14733); assay: Inhibition of human MKK7 assessed as percent of control at 2000 nM by KINOMEscan assay relative to control
[23] = biological target: Serine/threonine-protein kinase Nek2 (Homo sapiens) (UniProt P51955); assay: Inhibition of human NEK2 assessed as percent of control at 2000 nM by KINOMEscan assay relative to control
[24] = biological target: Serine/threonine-protein kinase MRCK gamma (Homo sapiens) (UniProt Q6DT37); assay: Inhibition of human DMPK2 assessed as percent of control at 2000 nM by KINOMEscan assay relative to control
[25] = biological target: Calcium/calmodulin-dependent protein kinase type II subunit gamma (Homo sapiens) (UniProt Q13555); assay: Inhibition of human CAMK2G assessed as percent of control at 2000 nM by KINOMEscan assay relative to control
[26] = biological target: cAMP-dependent protein kinase catalytic subunit beta (Homo sapiens) (UniProt P22694); assay: Inhibition of human PKAC-beta assessed as percent of control at 2000 nM by KINOMEscan assay relative to control
[27] = biological target: Microtubule-associated serine/threonine-protein kinase 1 (Homo sapiens) (UniProt Q9Y2H9); assay: Inhibition of human MAST1 assessed as percent of control at 2000 nM by KINOMEscan assay relative to control
[28] = tested on: Receptor-type tyrosine-protein kinase FLT3 (Homo sapiens), P36888 [UNDEFINED MUTATION]; assay: Inhibition of human FLT3 ITD mutant assessed as percent of control at 2000 nM by KINOMEscan assay relative to control
[29] = biological target: Serine/threonine-protein kinase SIK3 (Homo sapiens) (UniProt Q9Y2K2); assay: Inhibition of human QSK assessed as percent of control at 2000 nM by KINOMEscan assay relative to control
[30] = biological target: Phosphatidylinositol 4-phosphate 3-kinase C2 domain-containing subunit beta (Homo sapiens) (UniProt O00750); assay: Inhibition of human PIK3CB assessed as percent of control at 2000 nM by KINOMEscan assay relative to control

Chain of Microtubule-associated serine/threonine-protein kinase 1 (Homo sapiens) (Q9Y2H9 whole entry, looked up): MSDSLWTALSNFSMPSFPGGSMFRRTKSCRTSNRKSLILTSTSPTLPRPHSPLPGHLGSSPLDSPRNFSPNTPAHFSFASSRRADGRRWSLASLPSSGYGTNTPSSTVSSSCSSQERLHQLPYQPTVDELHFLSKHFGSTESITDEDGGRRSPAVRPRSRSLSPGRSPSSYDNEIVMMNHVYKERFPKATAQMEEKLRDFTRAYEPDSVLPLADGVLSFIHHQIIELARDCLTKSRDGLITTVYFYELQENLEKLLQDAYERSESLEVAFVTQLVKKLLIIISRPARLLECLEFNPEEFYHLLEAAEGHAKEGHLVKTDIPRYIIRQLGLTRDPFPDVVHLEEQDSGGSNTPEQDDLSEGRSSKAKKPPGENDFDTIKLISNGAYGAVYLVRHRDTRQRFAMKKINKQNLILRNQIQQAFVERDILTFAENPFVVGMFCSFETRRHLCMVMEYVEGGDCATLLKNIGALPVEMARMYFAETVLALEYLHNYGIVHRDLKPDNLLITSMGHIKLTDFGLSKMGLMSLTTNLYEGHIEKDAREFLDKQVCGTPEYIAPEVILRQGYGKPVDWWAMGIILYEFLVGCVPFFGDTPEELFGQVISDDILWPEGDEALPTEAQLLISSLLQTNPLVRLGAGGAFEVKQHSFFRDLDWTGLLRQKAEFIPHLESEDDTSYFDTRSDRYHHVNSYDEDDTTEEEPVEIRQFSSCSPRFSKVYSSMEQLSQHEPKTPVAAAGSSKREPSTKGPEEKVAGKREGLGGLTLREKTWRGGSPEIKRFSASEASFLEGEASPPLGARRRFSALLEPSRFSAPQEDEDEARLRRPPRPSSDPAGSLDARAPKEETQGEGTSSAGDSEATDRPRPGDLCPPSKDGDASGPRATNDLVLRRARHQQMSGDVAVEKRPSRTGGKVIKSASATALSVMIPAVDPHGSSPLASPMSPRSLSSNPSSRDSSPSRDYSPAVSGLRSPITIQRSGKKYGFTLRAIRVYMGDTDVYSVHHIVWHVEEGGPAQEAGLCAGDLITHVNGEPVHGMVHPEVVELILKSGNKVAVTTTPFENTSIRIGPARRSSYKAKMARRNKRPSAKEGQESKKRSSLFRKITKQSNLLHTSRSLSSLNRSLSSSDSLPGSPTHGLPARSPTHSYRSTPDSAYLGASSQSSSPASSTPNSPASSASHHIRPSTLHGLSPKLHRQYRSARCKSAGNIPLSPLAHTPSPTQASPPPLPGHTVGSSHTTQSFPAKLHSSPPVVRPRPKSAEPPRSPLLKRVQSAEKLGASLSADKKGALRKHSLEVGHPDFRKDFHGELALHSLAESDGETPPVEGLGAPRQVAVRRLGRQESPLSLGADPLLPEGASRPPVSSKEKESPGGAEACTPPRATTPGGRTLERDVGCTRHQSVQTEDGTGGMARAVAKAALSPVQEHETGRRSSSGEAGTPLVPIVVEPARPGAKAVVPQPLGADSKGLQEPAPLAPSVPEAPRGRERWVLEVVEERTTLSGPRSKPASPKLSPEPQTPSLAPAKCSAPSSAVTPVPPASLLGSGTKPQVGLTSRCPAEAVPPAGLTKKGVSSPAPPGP
Chain of Serine/threonine-protein kinase MRCK gamma (Homo sapiens) (Q6DT37 whole entry): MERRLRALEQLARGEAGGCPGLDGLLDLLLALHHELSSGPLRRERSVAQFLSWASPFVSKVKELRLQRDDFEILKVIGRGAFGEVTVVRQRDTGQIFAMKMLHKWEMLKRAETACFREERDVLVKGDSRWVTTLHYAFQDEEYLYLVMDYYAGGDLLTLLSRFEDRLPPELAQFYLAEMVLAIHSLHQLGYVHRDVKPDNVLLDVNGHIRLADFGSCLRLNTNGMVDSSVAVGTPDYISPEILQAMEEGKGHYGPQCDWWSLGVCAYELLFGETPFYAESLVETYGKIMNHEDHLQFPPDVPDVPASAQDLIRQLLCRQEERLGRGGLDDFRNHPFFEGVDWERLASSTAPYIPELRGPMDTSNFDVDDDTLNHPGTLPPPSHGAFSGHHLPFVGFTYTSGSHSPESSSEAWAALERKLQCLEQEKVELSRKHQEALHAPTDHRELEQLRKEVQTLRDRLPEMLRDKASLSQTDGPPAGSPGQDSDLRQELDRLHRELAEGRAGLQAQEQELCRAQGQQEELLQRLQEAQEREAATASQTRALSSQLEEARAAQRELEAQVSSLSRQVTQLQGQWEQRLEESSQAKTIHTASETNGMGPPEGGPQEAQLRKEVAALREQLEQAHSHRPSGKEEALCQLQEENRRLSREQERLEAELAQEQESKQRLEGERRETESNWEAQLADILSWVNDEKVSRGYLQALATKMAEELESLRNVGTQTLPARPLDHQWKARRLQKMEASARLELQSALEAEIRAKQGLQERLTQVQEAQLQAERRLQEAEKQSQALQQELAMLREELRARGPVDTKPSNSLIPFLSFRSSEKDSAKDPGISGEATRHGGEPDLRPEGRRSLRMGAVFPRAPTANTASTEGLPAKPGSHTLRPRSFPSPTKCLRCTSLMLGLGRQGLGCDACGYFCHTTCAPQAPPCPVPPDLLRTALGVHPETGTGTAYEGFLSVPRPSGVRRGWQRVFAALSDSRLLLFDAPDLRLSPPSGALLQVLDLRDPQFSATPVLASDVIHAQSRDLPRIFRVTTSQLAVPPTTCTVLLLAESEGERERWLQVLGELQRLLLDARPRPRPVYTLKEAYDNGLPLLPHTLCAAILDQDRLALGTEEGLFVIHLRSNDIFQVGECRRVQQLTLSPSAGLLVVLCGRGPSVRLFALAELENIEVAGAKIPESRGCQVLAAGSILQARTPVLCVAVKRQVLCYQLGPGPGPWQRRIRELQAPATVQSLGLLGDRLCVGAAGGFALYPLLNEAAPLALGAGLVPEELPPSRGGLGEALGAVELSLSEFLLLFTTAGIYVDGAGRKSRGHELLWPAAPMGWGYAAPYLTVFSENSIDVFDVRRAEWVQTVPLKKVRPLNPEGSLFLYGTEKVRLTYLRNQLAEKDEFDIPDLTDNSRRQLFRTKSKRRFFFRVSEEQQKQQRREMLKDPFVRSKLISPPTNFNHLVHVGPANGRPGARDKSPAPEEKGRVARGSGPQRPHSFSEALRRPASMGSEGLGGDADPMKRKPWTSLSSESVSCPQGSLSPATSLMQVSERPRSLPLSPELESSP
Chain of Myosin light chain kinase family member 4 (Homo sapiens) (Q86YV6 whole entry): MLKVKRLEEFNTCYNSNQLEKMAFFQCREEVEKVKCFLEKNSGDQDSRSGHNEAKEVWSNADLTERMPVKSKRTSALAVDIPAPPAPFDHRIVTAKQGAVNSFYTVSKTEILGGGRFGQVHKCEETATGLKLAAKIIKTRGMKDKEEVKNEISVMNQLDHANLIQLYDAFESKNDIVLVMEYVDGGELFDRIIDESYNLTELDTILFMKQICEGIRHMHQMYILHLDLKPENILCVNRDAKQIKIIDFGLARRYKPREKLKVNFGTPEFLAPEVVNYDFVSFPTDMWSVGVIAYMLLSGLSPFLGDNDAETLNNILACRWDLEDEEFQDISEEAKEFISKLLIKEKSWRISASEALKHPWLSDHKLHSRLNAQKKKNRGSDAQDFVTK
Chain of LIM domain kinase 2 (Homo sapiens) (P53671 whole entry, looked up, the tested form may be a part): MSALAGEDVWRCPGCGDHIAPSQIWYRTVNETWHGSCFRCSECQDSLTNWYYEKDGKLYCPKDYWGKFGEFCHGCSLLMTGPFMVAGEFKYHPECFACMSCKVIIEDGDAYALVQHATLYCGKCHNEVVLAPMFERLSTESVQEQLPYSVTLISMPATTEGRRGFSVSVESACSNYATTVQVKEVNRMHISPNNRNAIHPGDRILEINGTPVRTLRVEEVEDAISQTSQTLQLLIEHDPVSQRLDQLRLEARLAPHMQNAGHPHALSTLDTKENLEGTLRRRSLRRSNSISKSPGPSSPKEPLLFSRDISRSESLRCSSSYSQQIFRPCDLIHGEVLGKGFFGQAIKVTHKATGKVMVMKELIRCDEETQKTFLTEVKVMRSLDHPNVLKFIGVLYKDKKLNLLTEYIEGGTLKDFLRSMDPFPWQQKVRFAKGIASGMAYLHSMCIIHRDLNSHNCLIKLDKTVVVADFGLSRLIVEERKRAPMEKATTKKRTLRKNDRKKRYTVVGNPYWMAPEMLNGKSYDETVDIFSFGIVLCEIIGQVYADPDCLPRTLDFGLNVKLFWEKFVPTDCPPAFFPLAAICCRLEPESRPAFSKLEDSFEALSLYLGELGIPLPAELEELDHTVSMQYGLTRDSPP
Chain of Phosphorylase b kinase gamma catalytic chain, liver/testis isoform (Homo sapiens) (P15735 whole entry, the tested form may be a part, canonical isoform): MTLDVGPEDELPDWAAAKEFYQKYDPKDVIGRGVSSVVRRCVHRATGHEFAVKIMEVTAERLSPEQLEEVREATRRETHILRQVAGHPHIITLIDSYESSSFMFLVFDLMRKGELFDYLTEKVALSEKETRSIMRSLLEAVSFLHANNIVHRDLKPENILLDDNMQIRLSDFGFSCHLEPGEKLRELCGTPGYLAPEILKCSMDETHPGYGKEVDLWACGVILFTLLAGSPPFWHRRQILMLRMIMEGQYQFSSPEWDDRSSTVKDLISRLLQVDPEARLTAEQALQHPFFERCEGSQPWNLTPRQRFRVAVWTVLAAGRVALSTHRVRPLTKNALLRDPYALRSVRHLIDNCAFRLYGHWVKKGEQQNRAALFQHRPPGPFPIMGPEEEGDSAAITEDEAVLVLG
Chain of Dual specificity mitogen-activated protein kinase kinase 7 (Homo sapiens) (O14733 whole entry): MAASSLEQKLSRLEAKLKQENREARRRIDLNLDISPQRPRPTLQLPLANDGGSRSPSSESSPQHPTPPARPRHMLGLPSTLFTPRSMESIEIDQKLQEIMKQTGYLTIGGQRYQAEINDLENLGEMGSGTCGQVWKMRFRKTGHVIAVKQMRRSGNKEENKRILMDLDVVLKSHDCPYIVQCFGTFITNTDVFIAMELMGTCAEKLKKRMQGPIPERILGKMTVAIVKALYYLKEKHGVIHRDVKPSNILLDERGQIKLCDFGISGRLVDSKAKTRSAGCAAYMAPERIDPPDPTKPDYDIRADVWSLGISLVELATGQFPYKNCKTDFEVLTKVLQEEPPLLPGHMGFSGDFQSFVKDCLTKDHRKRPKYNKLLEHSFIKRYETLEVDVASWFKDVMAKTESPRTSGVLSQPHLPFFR

For CN(C)C(=O)c1ccc(N2CCCN(c3ccnc4sc(C(N)=O)c(N)c34)CC2)cc1, which Activity [1] is on record?
Its Activity is 99% and 98%.

What about the Activity [2] of the same compound?
The Activity was 87% and 100%.

What about the Activity [3] of the same compound?
The Activity was 100% and 94%.

And the Activity [4]?
The Activity was 88% and 100%.

What about the Activity [5] of the same compound?
Its Activity is 94%.

What about the Activity ([5]; INHIBITOR) of the same compound?
The Activity was 31%.

And the Activity [6]?
The Activity was 100%.

And the Activity [7]?
Its Activity is 79% and 88%.

What about the Activity [8] of the same compound?
Its Activity is 100% and 99%.

What about the Activity [9] of the same compound?
The Activity was 77%.

And the Activity ([9]; INHIBITOR)?
Its Activity is 10%.

What about the Activity [10] of the same compound?
The Activity was 86% and 83%.

What about the Activity [11] of the same compound?
Its Activity is 91% and 98%.

And the Activity [12]?
Its Activity is 86% and 65%.

What about the Activity [13] of the same compound?
Its Activity is 96% and 97%.

And the Activity [14]?
Its Activity is 100% and 89%.

And the Activity [15]?
Its Activity is 100%.

And the Activity [16]?
The Activity was 100%.

And the Activity [17]?
Its Activity is 100%.

What about the Activity [18] of the same compound?
Its Activity is 94% and 80%.

What about the Activity [19] of the same compound?
Its Activity is 96% and 91%.

What about the Activity [20] of the same compound?
The Activity was 84% and 66%.

And the Activity [21]?
Its Activity is 68%.

And the Activity ([21]; INHIBITOR)?
Its Activity is 47%.

What about the Activity [22] of the same compound?
Its Activity is 100% and 85%.

And the Activity [23]?
The Activity was 95%.

And the Activity [24]?
Its Activity is 93% and 94%.

What about the Activity [25] of the same compound?
Its Activity is 100%.

And the Activity [26]?
Its Activity is 83% and 100%.

And the Activity [27]?
Its Activity is 92%.

What about the Activity [28] of the same compound?
The Activity was 82% and 72%.

What about the Activity [29] of the same compound?
The Activity was 89% and 97%.

And the Activity [30]?
The Activity was 100% and 95%.
